Drawing on ChEMBL document CHEMBL4715730, “Design, synthesis, and pharmacological evaluation of multitarget-directed ligands with both serotonergic subtype 4 receptor (5-HT4R) partial agonist and 5-HT6R antagonist activities, as potential treatment of Alzheimer's disease” (Eur J Med Chem, 2016), this text covers inhibition and Ki for five compounds.

Structures are written as SMILES. The source made the active and inactive calls. No cut-off for these calls is given here.

The inhibition is the drop in the measured response relative to a control, in per cent. What is called Ki is a dissociation constant, usually derived from enzyme kinetics or from competition with a known ligand.

Chain of 5-hydroxytryptamine receptor 4 (O70528 whole entry): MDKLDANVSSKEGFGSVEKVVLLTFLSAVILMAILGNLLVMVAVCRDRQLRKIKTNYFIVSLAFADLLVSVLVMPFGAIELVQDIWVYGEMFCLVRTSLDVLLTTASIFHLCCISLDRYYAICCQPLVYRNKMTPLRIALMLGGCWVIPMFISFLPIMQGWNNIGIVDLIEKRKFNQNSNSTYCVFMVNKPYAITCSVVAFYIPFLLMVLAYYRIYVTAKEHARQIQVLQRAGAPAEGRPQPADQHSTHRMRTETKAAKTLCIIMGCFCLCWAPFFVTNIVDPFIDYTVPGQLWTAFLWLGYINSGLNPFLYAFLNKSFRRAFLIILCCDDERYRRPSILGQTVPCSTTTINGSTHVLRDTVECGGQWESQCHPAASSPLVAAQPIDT

The target in the first experiment is 5-hydroxytryptamine receptor 4 (Cavia porcellus) (UniProt O70528). The experiment can be described thus: Displacement of [3H]-GR113808 from guinea pig brain 5HT4 receptor at 1 uM in presence of serotonin incubated for 30 mins. In kind it is tissue-based. The conditions noted are these: filed as agonist.
Chain of 5-hydroxytryptamine receptor 4 (Cavia porcellus) (O70528 whole entry): as above
Take `COc1ccc(S(=O)(=O)NCCCN2CCC(CCC(=O)c3cc(Cl)c(N)cc3OC)CC2)cc1`: the inhibition was determined as 100%.

In the case of `COc1ccc(S(=O)(=O)NCCN2CCC(CCC(=O)c3cc(Cl)c(N)cc3OC)CC2)c(OC)c1`, the inhibition came to 100%.

As to `COc1ccc(S(=O)(=O)NCCN2CCC(CCC(=O)c3cc(Cl)c(N)cc3OC)CC2)cc1Br`, the inhibition was found to be 99%.

For `COc1ccc(S(=O)(=O)CCCN2CCC(CCC(=O)c3cc(Cl)c(N)cc3OC)CC2)cc1`, the inhibition is 100%.

For `COc1cc(N)c(Cl)cc1C(=O)CCC1CCN(CCNS(=O)(=O)c2cc(Br)c(N)c(Br)c2)CC1`, the inhibition came out at 100%.

In the next experiment the target is T1, 5-hydroxytryptamine receptor 6 (Homo sapiens, UniProt P50406). The experiment can be described thus: Displacement of [3H]-LSD from human 5-HT6 receptor expressed in HEK293 cells in presence of serotonin incubated for 60 mins. In kind it is cell-based. The conditions noted are these: read-out: Ki. In general terms: Loss of bound radioactivity is the signal in a displacement assay; it reports binding, not function.
T1 sequence (P50406 whole entry): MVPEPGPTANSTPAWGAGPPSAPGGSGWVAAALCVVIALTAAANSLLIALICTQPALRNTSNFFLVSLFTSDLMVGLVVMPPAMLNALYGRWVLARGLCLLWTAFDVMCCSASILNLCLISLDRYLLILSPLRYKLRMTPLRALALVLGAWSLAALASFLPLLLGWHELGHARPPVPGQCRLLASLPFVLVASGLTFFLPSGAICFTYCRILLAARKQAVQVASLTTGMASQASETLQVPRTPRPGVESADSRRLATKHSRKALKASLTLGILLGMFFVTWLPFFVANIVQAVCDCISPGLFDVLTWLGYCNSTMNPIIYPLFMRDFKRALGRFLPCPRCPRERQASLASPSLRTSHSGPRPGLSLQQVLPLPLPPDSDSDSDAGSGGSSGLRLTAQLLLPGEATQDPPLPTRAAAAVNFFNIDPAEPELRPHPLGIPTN
Consider `COc1ccc(S(=O)(=O)NCCN2CCC(CCC(=O)c3cc(Cl)c(N)cc3OC)CC2)cc1Br`, for which the Ki stood at 147 nM.

With `COc1cc(N)c(Cl)cc1C(=O)CCC1CCN(CCNS(=O)(=O)c2cc(Br)c(N)c(Br)c2)CC1`, the Ki came out at 140 nM.

The target of another experiment is T1, 5-hydroxytryptamine receptor 6. The experiment in a line: Displacement of [3H]-LSD from human 5-HT6 receptor expressed in HEK293 cells at 0.01 uM in presence of serotonin incubated for 60 mins.
Conditions: not given
It is filed as cell-based.
Regarding `COc1ccc(S(=O)(=O)NCCCN2CCC(CCC(=O)c3cc(Cl)c(N)cc3OC)CC2)cc1`, the inhibition entry was “inactive”.

Regarding `COc1ccc(S(=O)(=O)NCCN2CCC(CCC(=O)c3cc(Cl)c(N)cc3OC)CC2)c(OC)c1`, the inhibition result is “inactive”.

For `COc1ccc(S(=O)(=O)NCCN2CCC(CCC(=O)c3cc(Cl)c(N)cc3OC)CC2)cc1Br`, the inhibition result is “inactive”.

Take `COc1ccc(S(=O)(=O)CCCN2CCC(CCC(=O)c3cc(Cl)c(N)cc3OC)CC2)cc1`: the inhibition turned out to be 10%.

Still in this experiment, the particulars now being: filed as antagonist.
For `COc1cc(N)c(Cl)cc1C(=O)CCC1CCN(CCNS(=O)(=O)c2cc(Br)c(N)c(Br)c2)CC1`, the inhibition is 52%.

For another experiment, the target named is 5-hydroxytryptamine receptor 4 (Cavia porcellus) (UniProt O70528). The experiment in a line: Displacement of [3H]-GR113808 from guinea pig brain 5HT4 receptor at 0.01 uM in presence of serotonin incubated for 30 mins. In kind it is tissue-based.
Conditions: not given
Take `COc1ccc(S(=O)(=O)NCCN2CCC(CCC(=O)c3cc(Cl)c(N)cc3OC)CC2)c(OC)c1`: the inhibition was determined as 19%.

Turning to `COc1ccc(S(=O)(=O)NCCN2CCC(CCC(=O)c3cc(Cl)c(N)cc3OC)CC2)cc1Br`, the inhibition stood at 24%.

In the case of `COc1ccc(S(=O)(=O)CCCN2CCC(CCC(=O)c3cc(Cl)c(N)cc3OC)CC2)cc1`, the inhibition is 11%.

The same experiment, now with this note: filed as agonist.
As to `COc1ccc(S(=O)(=O)NCCCN2CCC(CCC(=O)c3cc(Cl)c(N)cc3OC)CC2)cc1`, the inhibition was 41%.

On to `COc1cc(N)c(Cl)cc1C(=O)CCC1CCN(CCNS(=O)(=O)c2cc(Br)c(N)c(Br)c2)CC1`, for which the inhibition worked out at 46%.

A further experiment has as its target T1, 5-hydroxytryptamine receptor 6. The experiment can be described thus: Displacement of [3H]-LSD from human 5-HT6 receptor expressed in HEK293 cells at 1 uM in presence of serotonin incubated for 60 mins. In kind it is cell-based.
Conditions: not given
As for `COc1ccc(S(=O)(=O)NCCCN2CCC(CCC(=O)c3cc(Cl)c(N)cc3OC)CC2)cc1`, the inhibition result is “inactive”.

Take `COc1ccc(S(=O)(=O)CCCN2CCC(CCC(=O)c3cc(Cl)c(N)cc3OC)CC2)cc1`: the inhibition came to 33%.

The experiment is the same for the next values; noted with them: filed as antagonist.
Consider `COc1ccc(S(=O)(=O)NCCN2CCC(CCC(=O)c3cc(Cl)c(N)cc3OC)CC2)c(OC)c1`, for which the inhibition was found to be 45%.

On to `COc1ccc(S(=O)(=O)NCCN2CCC(CCC(=O)c3cc(Cl)c(N)cc3OC)CC2)cc1Br`, for which the inhibition was determined as 72%.

With `COc1cc(N)c(Cl)cc1C(=O)CCC1CCN(CCNS(=O)(=O)c2cc(Br)c(N)c(Br)c2)CC1`, the inhibition came out at 83%.

A further experiment has as its target 5-hydroxytryptamine receptor 4 (Cavia porcellus, UniProt O70528). The experiment can be described thus: Displacement of [3H]-GR113808 from guinea pig brain 5HT4 receptor in presence of serotonin incubated for 30 mins. It is filed as tissue-based. The conditions noted are these: read-out: Ki.
As to `COc1ccc(S(=O)(=O)NCCCN2CCC(CCC(=O)c3cc(Cl)c(N)cc3OC)CC2)cc1`, the inhibition constant Ki worked out at 26 nM.

In the case of `COc1ccc(S(=O)(=O)NCCN2CCC(CCC(=O)c3cc(Cl)c(N)cc3OC)CC2)c(OC)c1`, the inhibition constant Ki came out at 18.7 nM.

Turning to `COc1ccc(S(=O)(=O)NCCN2CCC(CCC(=O)c3cc(Cl)c(N)cc3OC)CC2)cc1Br`, the inhibition constant Ki stood at 24.3 nM.

`COc1ccc(S(=O)(=O)CCCN2CCC(CCC(=O)c3cc(Cl)c(N)cc3OC)CC2)cc1`: the Ki amounted to 12.2 nM.

For the compound `COc1cc(N)c(Cl)cc1C(=O)CCC1CCN(CCNS(=O)(=O)c2cc(Br)c(N)c(Br)c2)CC1`, the Ki was 8.7 nM.
